Test results: patent US12714721B2, “Methods of treatment of a cytokine storm” (Loma Linda University Health, priority 2020, dated 2026)
Entries after “also recorded” stand apart in the source; their conditions may differ.

Test: Serum IGF-I in LPS-treated mice after IGF-I in vivo gene therapy
Design: species or system mouse
Conditions: LPS 20 mg/kg i.p., 7-day study, IGF-I gene therapy i.m. one day prior to LPS
Description: AKI inflammation was associated with a decrease in serum IGF-I. This deficiency was rescued by expression of IGF-1. An in vivo gene therapy approach was utilized. A lentiviral vector engineered to express IGF-I was injected into skeletal muscle of the mice. Constant IGF-I production was designed because IGF binding protein 3, which normally binds to and stabilizes IGF-1 in serum, is expected to decrease. This decrease is due to liver growth receptor depression and therefore the free IGF-I, being a small molecule, is excreted in the urine. By using in vivo gene therapy approach, the free IGF-I is available to the sites of injury in the kidney.
In this 7-day study, there was a marked drop in serum IGF-I from 337.5 to 85 ng/mL (p<0.001), as a consequence of LPS therapy (20 mg/kg body weight). […] Under normal conditions, IGF-I circulates bound to IGFBP3. However, under the conditions of LPS administration, IGFBP3 would be expected to be low. Consequently, IGF-1 produced by muscle should circulate as free IGF-I, which would be readily accessible through the remaining intact vasculature to the injured kidney.
Experimental Design for IGF-1 and BTP-2 studies—The animal experiments involved B6 mice between 5-8 weeks of age. […]

With “IGF-I: Insulin-like Growth Factor, delivered by a lentiviral vector engineered to express IGF-I injected into skeletal muscle” as the substance, how does the “serum IGF-I” value read?
The value was “normalized the low serum IGF-I; also recorded: rescued this deficiency”.

What about the “serum IGF-I” value (listed as Lenti-IGF-I) of the same substance?
The value was “rescued the serum IGF-I deficiency”.
